Laboratory results published in US12570675B2, “Boronic acid compounds” (LG CHEM, LTD., priority 2020, dated 2026).

The molecules below were run against Proteasome chymotrypsin-like activity (S26 protein from RPMI8226 cells) (Homo sapiens, UniProt P28074). Details: S26 protein from RPMI8226 cell extract 2 ug/well, substrate 20 uM, 37° C., 90 minutes; read-out: Proteasome chymotrypsin-like activity inhibition IC50.
Chain of Proteasome chymotrypsin-like activity (S26 protein from RPMI8226 cells) (P28074 60-263 limits assumed): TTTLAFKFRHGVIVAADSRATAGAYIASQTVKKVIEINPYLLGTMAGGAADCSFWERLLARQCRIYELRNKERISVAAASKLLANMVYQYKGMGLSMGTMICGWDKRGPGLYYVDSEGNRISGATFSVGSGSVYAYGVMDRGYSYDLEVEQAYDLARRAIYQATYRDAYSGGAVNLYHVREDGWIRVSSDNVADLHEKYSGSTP
Format: biochemical
Procedure: The abilities to inhibit the proteasome activity of the compounds described in the Examples of the present invention and boronic acid drugs were evaluated as follows.
RPMI8226 cells, which is a multiple myeloma cell line, were cultured and then separated by a centrifuge, and washed twice with phosphate buffered saline (PBS). 20 mM of a tris-HCl (pH 8.0) buffer solution was added to the washed cells, and the cells were disrupted by a homogenizer and centrifuged to obtain S26 protein from the supernatant. Suc-Leu-Leu-Val-Tyr-AMC, for a fluorogenic substrate for the chymotrypsin-like activity of the proteasome, and Z-Leu-Leu-Glu-AMC, for a fluorogenic substrate for the caspase-like activity, were purchased from Calbiochem, EMD Millipore and used. Into each well of a 96-well plate (opaque, black round bottom), 20 ul of the S26 protein (final RPMI8226 cell extract concentration: 2 ug/well), 10 ul of S26 proteasome inhibitor serially diluted from 10 uM (final DMSO concentration: 0.5%), and 20 ul of the fluorogenic substrate for the proteasome chymotrypsin-like or caspase-like activity (final concentration: 20 uM) were added and mixed and allowed to react in a 37° C. incubator for 90 minutes. The fluorescence of the fluorogenic substrate was measured by FlexStation II Fluorometer (Molecular Devices). The fluorescence inhibited by the compound diluted at each concentration was measured as the relative percentage value for the amount obtained from the treatment only with the S26 protein and the fluorogenic substrate. IC50 (inhibitory concentration 50) was expressed in terms of a concentration that inhibits 50% of the maximum fluorescence induced by the fluorogenic substrate.
`CC(C)C[C@H](NC(=O)C1CC(c2ccccc2)=NO1)B(O)O` (stereo partly drawn) [Example 1, ((1R)-3-methyl-1-(3-phenyl-4,5-dihydroisoxazol-5-carboxamido)butyl)boronic acid] gave an IC50 of under 500 nM.
Work on `CC(C)C[C@H](NC(=O)C1CC(c2cnccn2)=NO1)B(O)O` (stereo partly drawn) [Example 2, ((1R)-3-methyl-1-(3-(pyrazin-2-yl)-4,5-dihydroisoxazol-5-carboxamido)butyl)boronic acid] yielded an IC50 of under 1000 nM.
`CC(C)C[C@H](NC(=O)C1CC(c2cc(Cl)ccc2Cl)=NO1)B(O)O` (stereo partly drawn) [Example 3, ((1R)-1-(3-(2,5-dichlorophenyl)-4,5-dihydroisoxazol-5-carboxamido)-3-methylbutyl)boronic acid] gave an IC50 of under 250 nM.
`CCC1(C(=O)N[C@@H](CC(C)C)B(O)O)CC(c2ccccc2)=NO1` (stereo partly drawn) [Example 4, ((1R)-1-(5-ethyl-3-phenyl-4,5-dihydroisoxazol-5-carboxamido)-3-methylbutyl)boronic acid] gave an IC50 of over 1000 nM.
With `CC(C)C[C@H](NC(=O)C1(C)CC(c2ccccc2)=NO1)B(O)O` (stereo partly drawn) [Example 5, ((1R)-3-methyl-1-(5-methyl-3-phenyl-4,5-dihydroisoxazol-5-carboxamido)butyl)boronic acid] the IC50 was over 1000 nM.
Work on `CCC1(C(=O)N[C@@H](CC(C)C)B(O)O)CC(c2cnccn2)=NO1` (stereo partly drawn) [Example 6, ((1R)-1-(5-ethyl-3-(pyrazin-2-yl)-4,5-dihydroisoxazol-5-carboxamido)-3-methylbutyl)boronic acid] yielded an IC50 of over 1000 nM.
`CC(C)C[C@H](NC(=O)[C@]1(Cc2ccccc2)CC(c2ccccc2)=NO1)B(O)O` [Example 7, ((R)-1-((S)-5-benzyl-3-phenyl-4,5-dihydroisoxazol-5-carboxamido)-3-methylbutyl)boronic acid] gave an IC50 of under 500 nM.
With `CC(C)C[C@H](NC(=O)C1CC(Cc2ccccc2)=NO1)B(O)O` (stereo partly drawn) [Example 8, ((1R)-1-(3-benzyl-4,5-dihydroisoxazol-5-carboxamido)-3-methylbutyl)boronic acid] the IC50 was under 250 nM.
`CC(C)C[C@H](NC(=O)C1CC(C2CCCCC2)=NO1)B(O)O` (stereo partly drawn) [Example 9, ((1R)-1-(3-cyclohexyl-4,5-dihydroisoxazol-5-carboxamido)-3-methylbutyl)boronic acid] was tested, and the IC50 was under 500 nM.
`CC(C)C[C@H](NC(=O)C1CC(C2CC2)=NO1)B(O)O` (stereo partly drawn) [Example 10, ((1R)-1-(3-cyclopropyl-4,5-dihydroisoxazol-5-carboxamido)-3-methylbutyl)boronic acid] gave an IC50 of under 500 nM.
In the case of `CC(C)C[C@H](NC(=O)C1CC(CCc2ccccc2)=NO1)B(O)O` (stereo partly drawn) [Example 11, ((1R)-3-methyl-1-(3-penetyl-4,5-dihydroisoxazol-5-carboxamido)butyl)boronic acid], the IC50 is reported as under 250 nM.
`CC(C)C[C@H](NC(=O)C1CC(c2nccc3ccccc23)=NO1)B(O)O` (stereo partly drawn) [Example 12, ((1R)-1-(3-(isoquinolin-1-yl)-4,5-dihydroisoxazol-5-carboxamido)-3-methylbutyl)boronic acid] gave an IC50 of under 250 nM.
`CC(C)C[C@H](NC(=O)[C@]1(C(C)C)CC(c2nccc3ccccc23)=NO1)B(O)O` [Example 13, ((R)-1-((R)-5-isopropyl-3-(isoquinolin-1-yl)-4,5-dihydroisoxazol-5-carboxamido)-3-methylbutyl)boronic acid] gave an IC50 of over 1000 nM.
In the case of `CC(C)C[C@H](NC(=O)C1CC(c2cccc(C(C)(C)C)c2)=NO1)B(O)O` (stereo partly drawn) [Example 14, ((1R)-1-(3-(3-(tert-butyl)phenyl)-4,5-dihydroisoxazol-5-carboxamido)-3-methylbutyl)boronic acid], the IC50 is reported as under 250 nM.
Molecule `CC(C)C[C@H](NC(=O)C1CC(c2ccc(C(C)(C)C)cc2)=NO1)B(O)O` (stereo partly drawn) [Example 15, ((1R)-1-(3-(4-(tert-butyl)phenyl)-4,5-dihydroisoxazol-5-carboxamido)-3-methylbutyl)boronic acid] has an IC50 of under 250 nM.
`CC(=O)Nc1ccc(C2=NOC(C(=O)N[C@@H](CC(C)C)B(O)O)C2)cc1` (stereo partly drawn) [Example 16, ((1R)-1-(3-(4-acetamidophenyl)-4,5-dihydroisoxazol-5-carboxamido)-3-methylbutyl)boronic acid] gave an IC50 of under 250 nM.
Work on `CC(C)C[C@H](NC(=O)C1CC(c2ccc3ccccc3c2)=NO1)B(O)O` (stereo partly drawn) [Example 17, ((1R)-3-methyl-1-(3-(naphthalen-2-yl)-4,5-dihydroisoxazol-5-carboxamido)butyl)boronic acid] yielded an IC50 of under 500 nM.
Molecule `CC(C)C[C@H](NC(=O)C1CC(Cc2ccc3ccccc3c2)=NO1)B(O)O` (stereo partly drawn) [Example 18, ((1R)-3-methyl-1-(3-(naphthalen-2-ylmethyl)-4,5-dihydroisoxazol-5-carboxamido)butyl)boronic acid] has an IC50 of under 500 nM.
`CC(C)C[C@H](NC(=O)C1CC(c2cccc3ccccc23)=NO1)B(O)O` (stereo partly drawn) [Example 19, ((1R)-3-methyl-1-(3-(naphthalen-1-yl)-4,5-dihydroisoxazol-5-carboxamido)butyl)boronic acid] was tested, and the IC50 was under 100 nM.
With `CC(C)C[C@H](NC(=O)C1CC(c2cccc(-c3ccccc3)c2)=NO1)B(O)O` (stereo partly drawn) [Example 20, ((1R)-1-(3-([1,1′-biphenyl]-3-yl)-4,5-dihydroisoxazol-5-carboxamido)-3-methylbutyl)boronic acid] the IC50 was under 250 nM.
`CC(C)C[C@H](NC(=O)C1CC(c2ccc3ccccc3n2)=NO1)B(O)O` (stereo partly drawn) [Example 21, ((1R)-3-methyl-1-(3-(quinolin-2-yl)-4,5-dihydroisoxazol-5-carboxamido)butyl)boronic acid] was tested, and the IC50 was under 250 nM.
`CC(C)C[C@H](NC(=O)C1CC(c2cc3ccccc3cn2)=NO1)B(O)O` (stereo partly drawn) [Example 22, ((1R)-1-(3-(isoquinolin-3-yl)-4,5-dihydroisoxazol-5-carboxamido)-3-methylbutyl)boronic acid] showed an IC50 of under 250 nM.
In the case of `CC(C)C[C@H](NC(=O)C1CC(c2ccnc3ccccc23)=NO1)B(O)O` (stereo partly drawn) [Example 23, ((1R)-3-methyl-1-(3-(quinolin-4-yl)-4,5-dihydroisoxazol-5-carboxamido)butyl)boronic acid], the IC50 is reported as under 250 nM.
In the case of `CC(C)C[C@H](NC(=O)[C@]1(Cc2ccccc2)CC(c2cccc(C(C)(C)C)c2)=NO1)B(O)O` [Example 24, ((R)-1-((S)-5-benzyl-3-(3-(tert-butyl)phenyl)-4,5-dihydroisoxazol-5-carboxamido)-3-methylbutyl)boronic acid], the IC50 is reported as under 500 nM.
With `CC(C)C[C@H](NC(=O)C1CC(c2cccc(-c3ccccc3)n2)=NO1)B(O)O` (stereo partly drawn) [Example 25, ((1R)-3-methyl-1-(3-(6-phenylpyridin-2-yl)-4,5-dihydroisoxazol-5-carboxamido)butyl)boronic acid] the IC50 was under 100 nM.
`CC(C)C[C@H](NC(=O)C1CC(c2ccc(-c3ccccn3)cc2)=NO1)B(O)O` (stereo partly drawn) [Example 26, ((1R)-3-methyl-1-(3-(4-(pyridin-2-yl)phenyl)-4,5-dihydroisoxazol-5-carboxamido)butyl)boronic acid] showed an IC50 of under 50 nM.
Molecule `CC(C)C[C@H](NC(=O)C1CC(c2ccc(-c3ccccc3)cc2)=NO1)B(O)O` (stereo partly drawn) [Example 27, ((1R)-1-(3-([1,1′-biphenyl]-4-yl)-4,5-dihydroisoxazol-5-carboxamido)-3-methylbutyl)boronic acid] has an IC50 of under 250 nM.
For `CC(C)C[C@H](NC(=O)C1CC(c2ccc(-c3cccc(F)c3)cn2)=NO1)B(O)O` (stereo partly drawn) [Example 28, ((1R)-1-(3-(5-(3-fluorophenyl)pyridin-2-yl)-4,5-dihydroisoxazol-5-carboxamido)-3-methylbutyl)boronic acid], the IC50 was under 250 nM.
Work on `CC(C)C[C@H](NC(=O)C1CC(c2cnc3ccccc3c2)=NO1)B(O)O` (stereo partly drawn) [Example 29, ((1R)-3-methyl-1-(3-(quinolin-3-yl)-4,5-dihydroisoxazol-5-carboxamido)butyl)boronic acid] yielded an IC50 of under 500 nM.
Work on `CC(C)C[C@H](NC(=O)C1CC(c2ccc3ncccc3c2)=NO1)B(O)O` (stereo partly drawn) [Example 30, ((1R)-3-methyl-1-(3-(quinolin-6-yl)-4,5-dihydroisoxazol-5-carboxamido)butyl)boronic acid] yielded an IC50 of under 1000 nM.
In the case of `CC(C)C[C@H](NC(=O)C1CC(c2ccc(-c3cccnc3)cc2)=NO1)B(O)O` (stereo partly drawn) [Example 31, ((1R)-3-methyl-1-(3-(4-(pyridin-3-yl)phenyl)-4,5-dihydroisoxazol-5-carboxamido)butyl)boronic acid], the IC50 is reported as under 50 nM.
Work on `CC(C)C[C@H](NC(=O)C1CC(c2ccc(-c3ccccc3)nc2)=NO1)B(O)O` (stereo partly drawn) [Example 32, ((1R)-3-methyl-1-(3-(6-phenylpyridin-3-yl)-4,5-dihydroisoxazol-5-carboxamido)butyl)boronic acid] yielded an IC50 of under 100 nM.
In the case of `CC(C)C[C@H](NC(=O)C1CC(c2cncc(-c3ccccc3)c2)=NO1)B(O)O` (stereo partly drawn) [Example 33, ((1R)-3-methyl-1-(3-(5-phenylpyridin-3-yl)-4,5-dihydroisoxazol-5-carboxamido)butyl)boronic acid], the IC50 is reported as under 100 nM.
`CC(C)C[C@H](NC(=O)C1CC(c2cccc(-c3ccccn3)c2)=NO1)B(O)O` (stereo partly drawn) [Example 34, ((1R)-3-methyl-1-(3-(3-(pyridin-2-yl)phenyl)-4,5-dihydroisoxazol-5-carboxamido)butyl)boronic acid] gave an IC50 of under 100 nM.
For `CC(C)C[C@H](NC(=O)C1(Cc2ccccc2)CC(c2cccc(-c3nccc4ccccc34)c2)=NO1)B(O)O` (stereo partly drawn) [Example 36, ((1R)-1-(5-benzyl-3-(3-(isoquinolin-1-yl)phenyl)-4,5-dihydroisoxazol-5-carboxamido)-3-methylbutyl)boronic acid], the IC50 was under 250 nM.
